# From patent US20050227956A1, “Control of mold growth on wood” (priority 2004, published 2005)
# What was measured:
# [1] = system: Trichoderma virens; test: Six-well plate screening test; format: cell-based; details: for Minimum Inhibitory Concentrations (MIC): 10 days of incubation at room temperature
# [2] = system: Aureobasidium pullulans; test: Six-well plate screening test; format: cell-based; details: for Minimum Inhibitory Concentrations (MIC): 10 days of incubation at room temperature
# [3] = system: Alternaria alternata, Aspergillus niger, Aureobasidium pullulans, Cladosporium cladosporioides, Cephalosporium sp. (DR 423); test: Wood panel test method; set-up: species or system mixed spore suspension of mold; details: compositions with the single moldicide at 40 mg/kg
# Protocol: The wood panel specimens were approximately 5×3 inches (12.7×7.6 cm)×board thickness. There were seven replicates per treatment. The wood panels were conditioned at approximately 80° F. (27° C.) and 80% relative humidity for one week prior to mold inoculation. The wood panels were supported on a screen above a layer of water in a sealed plastic box for 8 weeks at approximately 80° F. (27° C.) and 100% relative humidity.
# Mold and stain fungi used for inoculum were Alternaria alternata, Aspergillus niger, Aureobasidium pullulans, Cladosporium cladosporioides, and an additional mold isolated from ACQ-treated wood from Georgia Pacific (October 2002, tentatively identified as Cephalosporium sp. (DR 423).
# Each inoculum was produced from fully colonized, 2% malt agar in 100 mm petri plates, by washing spores with 10 mL distilled water plus 10 mL rinse (20 mL inoculum were produced per plate). The panels were inoculated by spraying with mixed spore suspension of mold on the surface to be evaluated; approx. 2-3 mL of inoculum were applied per panel. The panel surfaces were lightly misted with distilled water once per week during the evaluation test to maintain optimum conditions for mold colonization in the chambers. Two evaluation ratings were made weekly for 8 weeks; using a scale of 0 (no coverage by mold) to 10 (total coverage by mold). […]
# [4] = system: Cladosporium cladosporioides; test: Six-well plate screening test; format: cell-based; details: for Minimum Inhibitory Concentrations (MIC): 10 days of incubation at room temperature
# [5] = system: Mold from ACQ wood; test: Six-well plate screening test; format: cell-based, cephalosporium; details: 10 days of incubation at room temperature
# [6] = system: Aspergillus niger; test: Six-well plate screening test; format: cell-based; details: for Minimum Inhibitory Concentrations (MIC): 10 days of incubation at room temperature
# [7] = system: Penicillium funiculosum; test: Six-well plate screening test; format: cell-based; details: for Minimum Inhibitory Concentrations (MIC): 10 days of incubation at room temperature
# [8] = system: Alternaria alternata; test: Six-well plate screening test; format: cell-based; details: for Minimum Inhibitory Concentrations (MIC): 10 days of incubation at room temperature
# [9] = system: Stachybotrus charatrum; test: Six-well plate screening test; format: cell-based
# [10] = single moldicide or ACQ-C alone, incubation period 14 days
# [11] = single moldicide, incubation period 21 days
Compound,Minimum Inhibitory Concentrations (MIC) [1] [mg/kg],"MIC [1, 10] [mg/kg]",Minimum Inhibitory Concentrations (MIC) [2] [mg/kg],"MIC [2, 10] [mg/kg]",potential to control mold growth [3],Minimum Inhibitory Concentrations (MIC) [4] [mg/kg],"MIC [4, 10] [mg/kg]",Minimum Inhibitory Concentrations (MIC) [5] [mg/kg],Minimum Inhibitory Concentrations (MIC) [6] [mg/kg],"MIC [6, 10] [mg/kg]",Minimum Inhibitory Concentrations (MIC) [7] [mg/kg],"MIC [7, 10] [mg/kg]",Minimum Inhibitory Concentrations (MIC) [8] [mg/kg],"MIC [8, 10] [mg/kg]","MIC [1, 11] [mg/kg]","MIC [2, 11] [mg/kg]","MIC [9, 10] [mg/kg]","MIC [9, 11] [mg/kg]","MIC [4, 11] [mg/kg]","MIC [6, 11] [mg/kg]",also measured
"CC(C)(C)C(O)(CCc1ccc(Cl)cc1)Cn1cncn1 (racemic) [Tebuconazole, (RS)-1-p-chlorophenyl4,4-dimethyl-3-(1H-1,2,4-triazol-1-ylmethyl)pentan-3-ol]",>10,>10,10,10,good potential to control mold growth,10,10,>100,10,10,>10,>10,100,100,,,,,,,
"CC1=C(C(=O)Nc2ccccc2)SCCO1 [Carboxin, 5,6-dihydro-2-methyl-1,4-oxathiine-3-carboxanilide]",,,100,,,100,,>100,>100,,>100,,>100,,,,,,,,Minimum Inhibitory Concentrations (MIC) ([9]; 10 days of incubation at room temperature): 100 mg/kg
"Cc1cc(C2CC2)nc(Nc2ccccc2)n1 [Cyprodinil, 4-cyclopropyl-6-methyl-N-phenylpyrimidin-2-amine]",>100,100,100,100,,100,100,>100,10,100,100,100,10,12.5,>100,>100,100,100,>100,>100,"MIC [7, 11]: 100 mg/kg; MIC [8, 11]: 50 mg/kg"
"CCCC1COC(Cn2cncn2)(c2ccc(Cl)cc2Cl)O1 (stereo not drawn) [Propiconazole, cis-trans-1-[2-(2,4-dichlorophenyl)-4-propyl-1,3-dioxolan-2-ylmethyl]-1H-1,2,4-triazole]",10,6.2,1,0.8,good potential to control mold growth,1,3.1,10,10,25,100,>100,>100,100,12.5,0.8,25,25,3.1,25,"MIC [7, 11]: >100 mg/kg; MIC [8, 11]: 100 mg/kg"
